Data as given in patent publication US12447145B2, “Compositions and methods for treating inflammatory neurological disorders” (Georgetown University, priority 2018, dated 2025).

Tests used:
[1] = test system: CNS lesions (lysolecithin-induced focal demyelination); experiment: Lysolecithin-induced focal demyelination of the spinal cord, immunohistochemistry of lesions; assay type: in vivo, mice
Method: Focal demyelination was induced by injecting 1% lysolecithin (Sigma-Aldrich) into the spinal cord ventral funiculus of 8-12 weeks old C57B1/6 mice of either sex. At 5 and 10 days post lesion (dpl), mice were perfused intracardially with 4% (w/v) paraformaldehyde (PFA; Sigma). To perform IHC, mice were perfusion-fixed with 4% PFA (Sigma). Spinal cords were dissected and postfixed for 30 min in 4% PFA at 4° C. and cryoprotected in 20% (w/v) sucrose (Sigma) in PBS overnight before freezing in O.C.T. on the surface of dry ice. Twelve-micrometer-thick spinal cord sections were cut using cryostat (Leica CM1900), collected on SuperFrostPlus slides (VWR International), and allowed to dry for 30 min before storing at −80° C. For IHC, sections were incubated in blocking solution (0.1% Triton™ X-100 and 10% FBS in PBS) for 1 h at room temperature (RT). Primary antibodies were diluted in blocking solution and applied overnight at 4° C. Fluorescent dye-conjugated secondary antibodies were obtained from Life Technologies and used according to the manufacturer's instruction. Focal demyelination was induced by injecting 1% lysolecithin, JPH203 or PBS control was injected via intraperitoneal from 5-9 dpl. Mice were sacrificed at 10 dpl by intracardial perfusion with 4% PFA (Sigma). IHC was performed as previously described. Twelve-micrometer-thick fixed spinal cord sections were cut using cryostat (Leica CM1900), collected on SuperFrostPlus slides (VWR International), and allowed to dry for 30 min before storing at −80° C. For IHC, sections were incubated in blocking solution (0.1% Triton™ X-100 and 10% FBS in PBS) for 1 h at room temperature (RT). Primary antibodies were diluted in blocking solution and applied overnight at 4° C. Sources and dilutions of primary antibodies were as follows: rabbit anti-Olig2 (1:300; Millipore), mouse anti-CC1 (1:200; Sigma). Fluorescent dye-conjugated secondary antibodies were obtained from Life Technologies and used according to the manufacturer's instruction. Antigen retrieval was used for Olig2 and mouse on mouse antigen retrieval with M.O.M.™ kit (Vector Laboratories) for CC1. DAPI nuclear counterstain was used before mounting sections with fluoromount-G (Southern-Biotech). ImageJ (NIH) was used to quantify Olig2+ CC1+ cells.

[2] = test system: EAE mice; experiment: Experimental autoimmune encephalomyelitis (EAE) mouse model, clinical scoring; assay type: in vivo, C57BL/6 female mice
Text: C57BL/6 female mice (Charles River) at age 10-12 weeks were acclimatized for 7 days prior to inducing experimental autoimmune encephalomyelitis (EAE). EAE was induced using the EAE kit (Hooke Laboratories, Cat. No: EK-2110) according to the Hooke Laboratories protocol (on the world wide web at hookelabs.com/protocols/eaeAI_C57BL6.html). Briefly, mice were immunized by an emulsion of MOG35-55 in complete Freund's adjuvant (CFA) injected subcutaneously at two sites (Day 0), followed by administration of pertussis toxin (PTX) intraperitoneally, first on the day of immunization (Day 0), and then again the following day (Day 1). Approximately 115 ng of PTX for each of the two PTX administrations were used.
The mice were scored blindly and daily from EAE Day 7 until at least EAE Day 30 according to the protocol from Hooke Laboratories. The scoring system used was as follows: 0.0=no obvious changes in motor function; 0.5=tip of tail is limp; 1.0=limp tail; 1.5=limp tail and hind leg inhibition; 2.0=limp tail and weakness of hind legs or signs of head tilting; 2.5=limp tail and dragging of hind legs or strong head tilting; 3.0=limp tail and complete paralysis of hind legs or limp tail with paralysis of one front and one hind leg; 3.5=limp tail and complete paralysis of hind legs plus mouse unable to right itself when placed on its side; 4.0=limp tail, complete hind leg and partial front leg paralysis, mouse is minimally moving but appears alert and feeding; 4.5=complete hind and partial front leg paralysis, no movement around the cage, mouse is not alert; 5.0=mouse is found dead due to paralysis or mouse is euthanized due to severe paralysis
The clinical scores and weight of mice were recorded daily until the end of experiment. […] For each experiment, 8 to 10 mice from each group were analyzed.
EAE mice were treated with L-type amino acid transporter 1 (LAT1) inhibitor JPH203 dihydrochloride starting at scores 1.0 and 3.0. […] Clinical scores of the animals from each group were recorded at 1-7 days after the first injection.

## Nc1cc(COc2c(Cl)cc(C[C@H](N)C(=O)O)cc2Cl)c2oc(-c3ccccc3)nc2c1 [JPH203, (S)-2-Amino-3-(4-((5-amino-2-phenylbenzo[d]oxazol-7-yl)methoxy)-3,5-dichlorophenyl) propanoic acid]
[1]; 10 dpl, control lesion macrophages rounded amoeboid/foamy, FIG. 3F/3G
  macrophage morphology in lesion at higher magnification: more ramified appearance, indicating reduced inflammatory activity
[1]; 10 dpl, versus control lesion, FIG. 3F/3G
  iNOS labeling of macrophages at higher magnification: very little iNOS labeling
[1]; intraperitoneal injection 5-9 dpl, analysis at 10 dpl, compared to PBS control, FIG. 3A/3B
  number of mature oligodendrocytes in lesions: increased number of mature oligodendrocytes in lesions
[1]; intraperitoneal injection 5-9 dpl, analysis at 10 dpl, versus PBS control, FIG. 3C, P<0.05
  increase in oligodendrocytes (Olig2+ CC1+ cells), quantification: 2 fold
[1]; intraperitoneal injection 5-9 dpl, analysis at 10 dpl, versus PBS treated lesion, FIG. 3D/3E
  pro-inflammatory iNOS expression in lesion (Iba1+iNOS+ microglia/macrophages): dramatically reduced pro-inflammatory iNOS expression
[2]; prophylactic treatment starting at score 1.0, PBS controls progressed to score 3.0 or higher, FIG. 2B
  progression of EAE to higher scores: prevented progression of EAE to higher scores
[2]; treatment starting at clinical score 1.0, 25 mg/kg intraperitoneal daily for 5 days, compared to PBS control, FIG. 2B
  motor recovery (clinical score), prophylactic efficacy: motor recovery
[2]; treatment starting at clinical score 3.0, 25 mg/kg intraperitoneal daily for 5 days, compared to PBS control, FIG. 2A
  motor recovery (clinical score), treatment efficacy: motor recovery
